Test results published in publication PMC9395504 (Investigational New Drugs, 2022).
Like-named read-outs stand apart in the source and are kept apart here. Marks after values point to notes of the source that are not given here.

Tests used:
[1] = Plasma pharmacokinetics of trametinib and dabrafenib at steady state (LC-MS/MS, noncompartmental); type: in vivo, human; details: for Cmax / AUC(0-t) / Tmax: human, plasma, oral
Method: We, therefore, collected samples on these days to perform dabrafenib and trametinib PK analysis.
We determined plasma concentrations of trametinib, dabrafenib, and hydroxy- and desmethyl-dabrafenib metabolites with a validated assay using liquid-liquid extraction of samples spiked with the stable isotope internal standards for each analyte followed by analysis using LC-MS/MS detection. The validated concentration ranges for quantitation were 0.250 to 250 ng/mL for trametinib and 1.00 to 1,000 ng/mL for dabrafenib and its metabolites. We calculated concentrations using a linear regression calibration model with a 1/x^2 weighting factor.
The following PK parameters were estimated: maximum observed plasma concentration (Cmax), time to reach Cmax (tmax), area-under-the-plasma concentration-time curve (AUC), terminal phase half-life (t1/2,z), and apparent total body clearance (CL/F). We performed noncompartmental analyses for PK parameter estimation using Phoenix® WinNonlin® version 6.4 or later software (Certara™, Princeton, NJ). […] We prepared descriptive statistics, tables, and graphs using Phoenix® WinNonlin® and Prism version 9.1.1 (GraphPad Software, San Diego, CA).

[2] = Safety: adverse events by NCI-CTCAE v4.0, phase 1 study Part 1; type: in vivo, human
Method: We defined the dose-limiting toxicity (DLT) period as the first 28 days of each dose-escalation cohort’s treatment cycle (DLT window). […] Non-hematologic DLTs included grade ≥3 nausea, vomiting, or diarrhea enduring >48 hours despite standard medical management, grade 3 fatigue persisting >7 days or grade 4 fatigue, any grade ≥3 metabolic laboratory abnormalities that are not controlled within 48 hours by standard medical management.

[3] = trametinib 2 mg QD, Cycle 2 Day 7 with AMG 232, Arm 2 cohort 1 (AMG 232 120 mg), geometric mean (CV%)
[4] = trametinib 2 mg QD, Cycle 2 Day 7 with AMG 232, Arm 2 cohort 3 (AMG 232 240 mg), geometric mean (CV%)

Question: With `CC(=O)Nc1cccc(-n2c(=O)n(C3CC3)c(=O)c3c(Nc4ccc(I)cc4F)n(C)c(=O)c(C)c32)c1` [trametinib] as the molecule, how does the “Effect of AMG 232 co-administration on trametinib PK” value ([1]; cycle 2 day 7 vs cycle 1 day 21) read?
Answer: does not appear to affect

Question: What about the Cmax ([1]; 2 mg, trametinib 2 mg QD, Cycle 1 Day 21 without AMG 232, Arm 2 cohort 1 (AMG 232 120 mg), geometric mean (CV%)) of the same molecule?
Answer: 21.5 ng/mL

Question: And the AUC(0-t) ([1]; 2 mg, trametinib 2 mg QD, Cycle 1 Day 21 without AMG 232, Arm 2 cohort 1 (AMG 232 120 mg), geometric mean (CV%), read-out: AUC24hr)?
Answer: 370 ng·h/mL

Question: What about the Cmax ([1]; 2 mg, trametinib 2 mg QD, Cycle 1 Day 21 without AMG 232, Arm 2 cohort 2 (AMG 232 180 mg), geometric mean (CV%)) of the same molecule?
Answer: 25.3 ng/mL

Question: What about the Tmax ([1]; 2 mg, trametinib 2 mg QD, Cycle 1 Day 21 without AMG 232, Arm 2 cohort 2 (AMG 232 180 mg), median (min-max), read-out: tmax) of the same molecule?
Answer: 4 h

Question: What about the Cmax ([1]; 2 mg, trametinib 2 mg QD, Cycle 1 Day 21 without AMG 232, Arm 2 cohort 3 (AMG 232 240 mg), geometric mean (CV%)) of the same molecule?
Answer: 22.1 ng/mL

Question: And the Tmax ([1]; 2 mg, trametinib 2 mg QD, Cycle 1 Day 21 without AMG 232, Arm 2 cohort 3 (AMG 232 240 mg), median (min-max), read-out: tmax)?
Answer: 2 h

Question: And the Cmax ([1]; trametinib 2 mg QD, Cycle 1 Day 21 without AMG 232, Arm 1 cohort 1 (AMG 232 120 mg), geometric mean (CV%))?
Answer: 20.1 ng/mL

Question: And the AUC(0-t) ([1]; trametinib 2 mg QD, Cycle 1 Day 21 without AMG 232, Arm 1 cohort 1 (AMG 232 120 mg), geometric mean (CV%), read-out: AUC24hr)?
Answer: 326 ng·h/mL

Question: And the Tmax ([1]; trametinib 2 mg QD, Cycle 1 Day 21 without AMG 232, Arm 1 cohort 1 (AMG 232 120 mg), median (min-max), read-out: tmax)?
Answer: 2 h

Question: What about the Cmax ([1]; trametinib 2 mg QD, Cycle 1 Day 21 without AMG 232, Arm 1 cohort 2 (AMG 232 180 mg), geometric mean (CV%)) of the same molecule?
Answer: 24.1 ng/mL

Question: What about the AUC(0-t) ([1]; trametinib 2 mg QD, Cycle 1 Day 21 without AMG 232, Arm 1 cohort 2 (AMG 232 180 mg), geometric mean (CV%), read-out: AUC24hr) of the same molecule?
Answer: 362 ng·h/mL

Question: What about the Tmax ([1]; trametinib 2 mg QD, Cycle 1 Day 21 without AMG 232, Arm 1 cohort 2 (AMG 232 180 mg), median (min-max), read-out: tmax) of the same molecule?
Answer: 2 h

Question: What about the Cmax ([1]; trametinib 2 mg QD, Cycle 2 Day 7 with AMG 232, Arm 1 cohort 1 (AMG 232 120 mg), geometric mean (CV%)) of the same molecule?
Answer: 22.4 ng/mL

Question: And the AUC(0-t) ([1]; trametinib 2 mg QD, Cycle 2 Day 7 with AMG 232, Arm 1 cohort 1 (AMG 232 120 mg), geometric mean (CV%), read-out: AUC24hr)?
Answer: 338 ng·h/mL

Question: And the Tmax ([1]; trametinib 2 mg QD, Cycle 2 Day 7 with AMG 232, Arm 1 cohort 1 (AMG 232 120 mg), median (min-max), read-out: tmax)?
Answer: 2 h

Question: What about the Cmax ([1]; trametinib 2 mg QD, Cycle 2 Day 7 with AMG 232, Arm 1 cohort 2 (AMG 232 180 mg), geometric mean (CV%)) of the same molecule?
Answer: 25.9 ng/mL

Question: And the AUC(0-t) ([1]; trametinib 2 mg QD, Cycle 2 Day 7 with AMG 232, Arm 1 cohort 2 (AMG 232 180 mg), geometric mean (CV%), read-out: AUC24hr)?
Answer: 402 ng·h/mL

Question: And the Tmax ([1]; trametinib 2 mg QD, Cycle 2 Day 7 with AMG 232, Arm 1 cohort 2 (AMG 232 180 mg), median (min-max), read-out: tmax)?
Answer: 2 h

Question: What about the Cmax [1, 3] of the same molecule?
Answer: 24.8 ng/mL

Question: And the Tmax ([1]; trametinib 2 mg QD, Cycle 2 Day 7 with AMG 232, Arm 2 cohort 1 (AMG 232 120 mg), median (min-max), read-out: tmax)?
Answer: 2 h

Question: What about the Cmax ([1]; trametinib 2 mg QD, Cycle 2 Day 7 with AMG 232, Arm 2 cohort 2 (AMG 232 180 mg), n = 1) of the same molecule?
Answer: 21.8 ng/mL

Question: And the AUC(0-t) ([1]; trametinib 2 mg QD, Cycle 2 Day 7 with AMG 232, Arm 2 cohort 2 (AMG 232 180 mg), n = 1, read-out: AUC24hr)?
Answer: 463 ng·h/mL

Question: And the Tmax ([1]; trametinib 2 mg QD, Cycle 2 Day 7 with AMG 232, Arm 2 cohort 2 (AMG 232 180 mg), n = 1, read-out: tmax)?
Answer: 2 h

Question: What about the Cmax [1, 4] of the same molecule?
Answer: 24.3 ng/mL

Question: What about the Tmax ([1]; trametinib 2 mg QD, Cycle 2 Day 7 with AMG 232, Arm 2 cohort 3 (AMG 232 240 mg), median (min-max), read-out: tmax) of the same molecule?
Answer: 2 h

Question: What about the Tmax ([1]; trametinib, cycle 2, day 7, with AMG 232 co-administration, across dose cohorts, read-out: median tmax) of the same molecule?
Answer: 1 to 3 h

Question: And the AUC24hr ([1]; trametinib 2 mg QD, Cycle 1 Day 21 without AMG 232, Arm 2 cohort 2 (AMG 232 180 mg), geometric mean (CV%))?
Answer: 471 (26.7%) n = 5 hr•ng/mL

Question: What about the AUC24hr ([1]; trametinib 2 mg QD, Cycle 1 Day 21 without AMG 232, Arm 2 cohort 3 (AMG 232 240 mg), geometric mean (CV%)) of the same molecule?
Answer: 385 (22.9%) n = 6 hr•ng/mL

Question: And the AUC24hr [1, 3]?
Answer: 468 (23.5%)^a n = 3 hr•ng/mL

Question: What about the AUC24hr [1, 4] of the same molecule?
Answer: 351 (41.9%)^a n = 4 hr•ng/mL

Question: What about the median tmax ([1]; trametinib, cycle 1, day 21, without AMG 232 co-administration, across dose cohorts) of the same molecule?
Answer: 2 h

Question: And the “Patients discontinuing trametinib due to AEs” value ([2]; all 31 patients, n=6)?
Answer: 19%

Question: With `CC(C)(C)c1nc(-c2cccc(NS(=O)(=O)c3c(F)cccc3F)c2F)c(-c2ccnc(N)n2)s1` [dabrafenib] as the molecule, how does the “Effect of AMG 232 on dabrafenib exposures” value ([1]; dabrafenib and trametinib with and without AMG 232) read?
Answer: not significantly altered

Question: And the Cmax ([1]; 150 mg BID, dabrafenib 150 mg BID, Cycle 1 Day 21, T + D without AMG 232, Arm 1 cohort 1 (AMG 232 120 mg), geometric mean (CV%))?
Answer: 1740 ng/mL

Question: What about the AUC(0-t) ([1]; 150 mg BID, dabrafenib 150 mg BID, Cycle 1 Day 21, T + D without AMG 232, Arm 1 cohort 1 (AMG 232 120 mg), geometric mean (CV%), read-out: AUC6hr) of the same molecule?
Answer: 4840 ng·h/mL

Question: And the Cmax ([1]; 150 mg BID, dabrafenib 150 mg BID, Cycle 1 Day 21, T + D without AMG 232, Arm 1 cohort 2 (AMG 232 180 mg), geometric mean (CV%))?
Answer: 3310 ng/mL

Question: What about the AUC(0-t) ([1]; 150 mg BID, dabrafenib 150 mg BID, Cycle 1 Day 21, T + D without AMG 232, Arm 1 cohort 2 (AMG 232 180 mg), geometric mean (CV%), read-out: AUC6hr) of the same molecule?
Answer: 7450 ng·h/mL

Question: What about the Tmax ([1]; 150 mg BID, dabrafenib 150 mg BID, Cycle 1 Day 21, T + D without AMG 232, Arm 1 cohort 2 (AMG 232 180 mg), median (min-max), read-out: tmax) of the same molecule?
Answer: 1 h

Question: What about the Tmax ([1]; dabrafenib 150 mg BID, Cycle 1 Day 21, T + D without AMG 232, Arm 1 cohort 1 (AMG 232 120 mg), median (min-max), read-out: tmax) of the same molecule?
Answer: 1 h

Question: And the Cmax ([1]; dabrafenib 150 mg BID, Cycle 2 Day 7, T + D with AMG 232, Arm 1 cohort 1 (AMG 232 120 mg), geometric mean (CV%))?
Answer: 1200 ng/mL

Question: And the AUC(0-t) ([1]; dabrafenib 150 mg BID, Cycle 2 Day 7, T + D with AMG 232, Arm 1 cohort 1 (AMG 232 120 mg), geometric mean (CV%), read-out: AUC6hr)?
Answer: 3640 ng·h/mL

Question: What about the Cmax ([1]; dabrafenib 150 mg BID, Cycle 2 Day 7, T + D with AMG 232, Arm 1 cohort 2 (AMG 232 180 mg), geometric mean (CV%)) of the same molecule?
Answer: 1750 ng/mL

Question: And the AUC(0-t) ([1]; dabrafenib 150 mg BID, Cycle 2 Day 7, T + D with AMG 232, Arm 1 cohort 2 (AMG 232 180 mg), geometric mean (CV%), read-out: AUC6hr)?
Answer: 4910 ng·h/mL

Question: And the Tmax ([1]; dabrafenib, cycle 1, day 21, without AMG 232 co-administration, read-out: median tmax)?
Answer: 1 h

Question: What about the “Patients discontinuing dabrafenib due to AEs” value ([2]; 10 patients in Arm 1, n=2) of the same molecule?
Answer: 20%
